Test results from the supplement of paper PMC8967900.

Experiments:
Experiment in all cases: selective drug sensitivity score (sDSS, relative to normal bone marrow) (sDSS (score)); higher = more potent and effective on the cell line relative to normal bone marrow cells
Conditions in all cases: 72 h
[1] = system: 697
[2] = system: COG-LL-317
[3] = system: COG-LL-355h
[4] = system: COG-LL-332h
[5] = system: TANOUE
[6] = system: KARPAS-45
[7] = system: ALL-SIL
[8] = system: SEM cells
[9] = system: TMD5
[10] = system: MOLT-4
[11] = system: PEER
[12] = system: LC4-1
[13] = system: DND-41
[14] = system: NALL-1
[15] = system: MHH-CALL-4
[16] = system: MOLT-14
[17] = system: KOPN-8
[18] = system: KASUMI-2
[19] = system: P12-ICHIKAWA
[20] = system: HPB-ALL
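Further: ALL cell lines in 384-well plates, five doses spanning 10,000-fold, each plate scaled between vehicle and 100 µmol/L benzalkonium chloride controls, sDSS an adapted area-under-curve metric.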

Row | Compound | selective drug sensitivity score [1] | selective drug sensitivity score [2] | selective drug sensitivity score [3] | selective drug sensitivity score [4] | selective drug sensitivity score [5] | selective drug sensitivity score [6] | selective drug sensitivity score [7] | selective drug sensitivity score [8] | selective drug sensitivity score [9] | selective drug sensitivity score [10] | selective drug sensitivity score [11] | selective drug sensitivity score [12] | selective drug sensitivity score [13] | selective drug sensitivity score [14] | selective drug sensitivity score [15] | selective drug sensitivity score [16] | selective drug sensitivity score [17] | selective drug sensitivity score [18] | selective drug sensitivity score [19] | selective drug sensitivity score [20]
1 | Cn1cc(C2=C(c3cn(C4CCN(Cc5ccccn5)CC4)c4ccccc34)C(=O)NC2=O)c2ccccc21 [Enzastaurin] (top concentration 10000 nM) | 5.76 | 7.26 | 6.76 | 6.16 | 2.46 | 4.86 | 3.96 | 6.76 | 0.06 | 6.26 | 6.66 | 3.26 | 4.56 | -0.34 | -0.04 | 6.06 | 2.46 | 2.06 | 4.66 | -0.24
2 | NS(=O)(=O)NCCNc1nonc1/C(=N/O)Nc1ccc(F)c(Br)c1 [Epacadostat] (top concentration 10000 nM) | -0.26 | 1.14 | -0.26 | -0.26 | -0.26 | -0.26 | -0.26 | 8.34 | 4.44 | -0.16 | 0.14 | -0.26 | -0.26 | 3.74 | 4.24 | -0.26 | 2.44 | -0.26 | -0.26 | -0.16
3 | CCOc1ccccc1-n1c(C(C)N2CCN(C(=O)COc3ccc(Cl)cc3)CC2)nc2ccccc2c1=O (stereo not given) [Erastin] (top concentration 10000 nM) | 20.1 | 11.2 | 14.4 | 12.7 | -9.96 | 8.24 | 6.94 | 6.34 | 7.04 | -2.26 | 7.94 | 16 | 7.14 | 6.64 | 6.44 | 8.54 | 18.8 | 19.4 | 7.94 | 6.54
4 | COc1cc(OC)cc(N(CCNC(C)C)c2ccc3ncc(-c4cnn(C)c4)nc3c2)c1 [Erdafitinib] (top concentration 1000 nM) | -0.06 | -0.56 | -0.56 | -0.46 | -0.56 | -0.06 | 2.74 | 0.24 | 4.74 | -0.56 | -0.36 | -0.56 | -0.26 | 5.34 | -0.46 | -0.56 | -0.56 | -0.56 | -0.56 | 1.64
5 | CC(C)(C)NC(=O)[C@H]1CC[C@H]2[C@@H]3CC[C@H]4NC(=O)C=C[C@]4(C)[C@H]3CC[C@]12C [Finasteride] (top concentration 10000 nM) | -0.52 | -0.52 | -0.52 | -0.52 | -0.52 | -0.52 | 1.78 | 1.48 | 0.58 | -0.52 | -0.52 | 2.08 | 2.98 | 3.48 | 1.88 | -0.52 | 8.18 | 0.78 | -0.52 | 0.28
6 | O=c1[nH]c(=O)n([C@H]2C[C@H](O)[C@@H](CO)O2)cc1F [Floxuridine] (top concentration 10000 nM) | 35.8 | 32.4 | 6.52 | 26.1 | 2.92 | -1.38 | 18.3 | 31.5 | -1.98 | 26.6 | 14.2 | 36.2 | 21 | 21 | 22.6 | 27.1 | 37.3 | 33.4 | 30.4 | 1.12
7 | CNc1nc(Nc2cn(C(C)(C)C#N)nc2C)ncc1C(F)(F)F [GNE-0877] (top concentration 1000 nM) | 0 | 0 | 0 | 0 | 0 | 0 | 0 | 0 | 0 | 0 | 0 | 0 | 0 | 0 | 0 | 0 | 0 | 1 | 0 | 0
8 | CCCc1cc(C)[nH]c(=O)c1CNC(=O)c1cc(-c2ccnc(N3CCN(C)CC3)c2)cc2c1cnn2C(C)C [GSK343] (top concentration 1000 nM) | 0 | 0 | 0 | 0 | 0 | 0 | 0 | 0 | 0 | 0 | 0 | 0 | 0 | 0 | 0 | 2 | 0 | 0 | 0 | 0
9 | O=C(O)c1ccc(O)c2ncccc12 [IOX-1] (top concentration 100000 nM) | 5.64 | 4.54 | 3.24 | 7.54 | 2.24 | 4.04 | 6.24 | 1.84 | 0.64 | 3.34 | 4.34 | 3.24 | 6.24 | 2.24 | 2.24 | 5.64 | 2.84 | 2.04 | 4.34 | 2.94
